We go through three compounds from ChEMBL document CHEMBL1147510 (Bioorg Med Chem Lett, 2004).

SMILES strings stand for the structures. The source made the active and inactive calls. No cut-off for these calls is given here.

Experiment [1] has as its target T1, 5-hydroxytryptamine receptor 3A (Rattus norvegicus) (UniProt P35563).
T1 sequence (whole entry): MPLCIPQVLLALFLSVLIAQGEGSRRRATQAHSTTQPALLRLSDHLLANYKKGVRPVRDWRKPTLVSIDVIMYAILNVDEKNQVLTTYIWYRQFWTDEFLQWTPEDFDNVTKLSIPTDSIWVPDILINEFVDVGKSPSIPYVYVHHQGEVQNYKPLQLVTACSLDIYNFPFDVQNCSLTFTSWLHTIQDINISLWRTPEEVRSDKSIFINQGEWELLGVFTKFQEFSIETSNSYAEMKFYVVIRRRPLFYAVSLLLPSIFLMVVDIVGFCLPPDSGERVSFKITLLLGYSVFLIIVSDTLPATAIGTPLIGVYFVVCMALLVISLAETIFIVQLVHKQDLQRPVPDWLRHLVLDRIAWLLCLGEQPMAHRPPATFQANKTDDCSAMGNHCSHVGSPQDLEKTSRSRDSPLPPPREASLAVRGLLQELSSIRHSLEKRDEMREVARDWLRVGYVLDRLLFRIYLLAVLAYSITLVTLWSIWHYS
In words: Ability to block serotonin (30 uM)-evoked responses at rat 5HT3-alpha receptor expressed in xenopus oocytes. Type of experiment: functional, cell-based. Conditions: Oocyte.

Experiment [2] has as its target T2, Neuronal acetylcholine receptor; alpha3/beta4 (Homo sapiens, UniProt P30926+P32297). In words: Activation responses to that evoked by ACh at human alpha3-beta4 receptor expressed in xenopus oocytes at 1 mM. The experiment is classed as cell-based. The settings on record: Oocyte.
In experiment [3] the target is T2, Neuronal acetylcholine receptor; alpha3/beta4. Kind of experiment: Antagonism of ACh-evoked responses at human Nicotinic acetylcholine receptor alpha3-beta4 expressed in xenopus oocytes. The experiment is classed as functional, cell-based, Oocyte.
Experiment [4] addresses T3, Neuronal acetylcholine receptor subunit alpha-7 (Rattus norvegicus, UniProt Q05941). Kind of experiment: Activation responses to that evoked by ACh at human Nicotinic acetylcholine receptor alpha-7 expressed in xenopus oocytes. The experiment is classed as cell-based, Oocyte.
Experiment [5] has as its system Oocyte. In words: Activation responses to that evoked by ACh at human Nicotinic acetylcholine receptor alpha-3-beta-2-alpha-5 expressed in xenopus oocytes at 100 uM. Type of experiment: cell-based.
Experiment [6] deals with T4, Neuronal acetylcholine receptor; alpha3/beta2 (Homo sapiens) (UniProt P17787+P32297). In words: Activation responses to that evoked by Nicotinic acetylcholine receptor alpha3-beta2 expressed in xenopus oocytes at 1 mM. The experiment is classed as cell-based. Conditions: Oocyte.
For experiment [7], the target named is T4, Neuronal acetylcholine receptor; alpha3/beta2 (Homo sapiens). Kind of experiment: Activation responses to that evoked by Nicotinic acetylcholine receptor alpha3-beta2 expressed in xenopus oocytes at 300 uM. Type of experiment: cell-based. The settings on record: Oocyte.
In experiment [8] the target is T5, Neuronal acetylcholine receptor; alpha4/beta2 (Homo sapiens, UniProt P17787+P43681). In words: Activation responses to that evoked by ACh at human Nicotinic acetylcholine receptor alpha4-beta2. The experiment is classed as protein-complex assay.
T5 sequence (P17787 whole entry): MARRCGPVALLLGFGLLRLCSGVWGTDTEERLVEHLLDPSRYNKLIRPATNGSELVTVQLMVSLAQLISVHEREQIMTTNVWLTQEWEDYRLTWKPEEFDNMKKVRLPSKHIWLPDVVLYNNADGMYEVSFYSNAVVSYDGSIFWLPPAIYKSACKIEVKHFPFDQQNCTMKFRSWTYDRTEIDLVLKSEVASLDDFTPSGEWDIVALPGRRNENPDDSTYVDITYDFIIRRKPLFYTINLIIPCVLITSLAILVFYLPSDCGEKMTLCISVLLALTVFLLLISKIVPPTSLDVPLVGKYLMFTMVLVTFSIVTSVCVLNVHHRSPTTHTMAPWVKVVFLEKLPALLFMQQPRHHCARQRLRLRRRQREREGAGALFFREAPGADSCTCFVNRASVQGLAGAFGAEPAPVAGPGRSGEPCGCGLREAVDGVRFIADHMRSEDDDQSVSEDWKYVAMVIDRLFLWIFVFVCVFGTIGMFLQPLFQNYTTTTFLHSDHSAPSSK
T5 sequence (P43681 whole entry): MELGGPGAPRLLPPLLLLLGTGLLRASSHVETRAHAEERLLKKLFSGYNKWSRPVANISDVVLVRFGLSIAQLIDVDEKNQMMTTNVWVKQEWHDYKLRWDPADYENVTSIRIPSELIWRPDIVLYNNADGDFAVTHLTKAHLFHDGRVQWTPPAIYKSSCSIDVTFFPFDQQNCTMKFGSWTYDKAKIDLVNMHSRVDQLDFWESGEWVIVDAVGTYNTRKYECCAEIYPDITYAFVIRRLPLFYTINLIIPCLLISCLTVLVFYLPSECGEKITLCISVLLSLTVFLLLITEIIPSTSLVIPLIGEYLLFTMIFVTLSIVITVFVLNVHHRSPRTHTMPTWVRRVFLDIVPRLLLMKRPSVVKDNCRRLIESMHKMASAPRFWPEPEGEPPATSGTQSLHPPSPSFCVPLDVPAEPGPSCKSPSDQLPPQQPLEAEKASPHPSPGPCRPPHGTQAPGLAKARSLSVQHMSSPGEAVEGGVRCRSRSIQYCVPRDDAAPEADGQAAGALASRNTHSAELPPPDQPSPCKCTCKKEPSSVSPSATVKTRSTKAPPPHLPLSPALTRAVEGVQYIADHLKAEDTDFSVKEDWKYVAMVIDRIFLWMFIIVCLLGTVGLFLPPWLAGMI
The target of experiment [9] is T5, Neuronal acetylcholine receptor; alpha4/beta2. Kind of experiment: Activation responses to that evoked by ACh at human Nicotinic acetylcholine receptor alpha4-beta2 expressed in xenopus oocytes at 300 uM. The experiment is classed as cell-based. The settings on record: Oocyte.
The target is the same in experiment [10]. In words: Antagonism of ACh response at Nicotinic acetylcholine receptor alpha4-beta2 expressed in xenopus oocytes. Type of experiment: functional, cell-based, Oocyte.
Experiment [11] has as its target T1, 5-hydroxytryptamine receptor 3A (Rattus norvegicus). In words: Effect on rat 5-hydroxytryptamine 3a receptor expressed in xenopus oocytes at concentration up to 100 uM. Type of experiment: functional, cell-based. The settings on record: Oocyte.
Experiment [12] deals with T3, Neuronal acetylcholine receptor subunit alpha-7. Kind of experiment: Inhibition of the response to ACh when coapplied with Nicotinic acetylcholine receptor alpha7.
For experiment [13], the target named is T2, Neuronal acetylcholine receptor; alpha3/beta4. In words: Responses to that evoked by Nicotinic acetylcholine receptor alpha3-beta4 expressed in xenopus oocytes up to 1 mM. The experiment is classed as cell-based. The settings on record: Oocyte.
Experiment [14] addresses T4, Neuronal acetylcholine receptor; alpha3/beta2 (Homo sapiens). In words: Responses to that evoked by Nicotinic acetylcholine receptor alpha3-beta2 expressed in xenopus oocytes up to 1 mM. Type of experiment: cell-based. Conditions: Oocyte.
Experiment [15] relates to Oocyte. In words: Antagonism of ACh response at Nicotinic acetylcholine receptor alpha-3-beta-2-alpha-5 receptor expressed in xenopus oocytes up to 1 mM. Type of experiment: functional, cell-based. Conditions: Homo sapiens.
Experiment [16] concerns the target T5, Neuronal acetylcholine receptor; alpha4/beta2. Kind of experiment: Responses to that evoked by ACh at human Nicotinic acetylcholine receptor alpha4-beta2 expressed in xenopus oocytes up to 1 mM. The experiment is classed as cell-based. Conditions: Oocyte.

T2 sequence (P30926 whole entry): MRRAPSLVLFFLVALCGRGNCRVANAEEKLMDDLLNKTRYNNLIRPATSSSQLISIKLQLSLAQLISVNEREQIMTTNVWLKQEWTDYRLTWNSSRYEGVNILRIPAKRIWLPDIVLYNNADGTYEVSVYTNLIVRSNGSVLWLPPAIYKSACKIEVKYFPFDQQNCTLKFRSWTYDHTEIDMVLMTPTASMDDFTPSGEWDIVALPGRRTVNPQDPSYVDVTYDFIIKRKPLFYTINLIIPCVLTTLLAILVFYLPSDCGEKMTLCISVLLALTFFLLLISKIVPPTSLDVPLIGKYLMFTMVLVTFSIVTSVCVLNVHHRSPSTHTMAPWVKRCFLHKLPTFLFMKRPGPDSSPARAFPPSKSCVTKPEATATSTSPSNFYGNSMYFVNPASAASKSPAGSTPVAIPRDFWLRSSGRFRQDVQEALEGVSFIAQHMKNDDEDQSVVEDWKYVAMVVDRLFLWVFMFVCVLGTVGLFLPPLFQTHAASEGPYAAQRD
T2 sequence (P32297 whole entry): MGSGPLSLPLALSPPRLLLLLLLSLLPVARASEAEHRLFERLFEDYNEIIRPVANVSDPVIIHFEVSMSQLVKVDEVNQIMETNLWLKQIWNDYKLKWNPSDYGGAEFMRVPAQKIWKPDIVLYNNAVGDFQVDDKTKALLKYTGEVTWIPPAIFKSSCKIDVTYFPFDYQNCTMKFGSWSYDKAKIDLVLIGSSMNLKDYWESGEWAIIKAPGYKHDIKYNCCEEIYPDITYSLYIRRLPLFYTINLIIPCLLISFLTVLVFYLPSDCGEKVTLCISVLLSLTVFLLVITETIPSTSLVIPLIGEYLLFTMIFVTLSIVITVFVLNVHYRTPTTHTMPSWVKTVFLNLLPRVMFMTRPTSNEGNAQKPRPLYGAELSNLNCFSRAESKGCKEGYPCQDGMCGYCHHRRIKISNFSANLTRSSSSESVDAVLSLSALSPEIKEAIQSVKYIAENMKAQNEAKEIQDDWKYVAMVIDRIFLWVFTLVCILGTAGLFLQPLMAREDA
T3 sequence (Q05941 whole entry): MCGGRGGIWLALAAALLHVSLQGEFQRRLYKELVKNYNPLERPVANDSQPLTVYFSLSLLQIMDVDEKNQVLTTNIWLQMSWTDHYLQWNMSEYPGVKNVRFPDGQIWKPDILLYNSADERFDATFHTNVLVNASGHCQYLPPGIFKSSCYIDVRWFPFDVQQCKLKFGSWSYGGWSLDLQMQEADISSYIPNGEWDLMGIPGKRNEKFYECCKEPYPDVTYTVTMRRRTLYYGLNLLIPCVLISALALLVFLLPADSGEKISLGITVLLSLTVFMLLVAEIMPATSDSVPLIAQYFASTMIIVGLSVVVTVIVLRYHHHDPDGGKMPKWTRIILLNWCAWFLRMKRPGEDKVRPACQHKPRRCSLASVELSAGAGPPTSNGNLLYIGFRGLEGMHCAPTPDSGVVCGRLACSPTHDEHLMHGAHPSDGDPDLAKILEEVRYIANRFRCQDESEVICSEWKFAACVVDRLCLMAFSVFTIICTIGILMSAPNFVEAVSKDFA

In general, IC50 refers to the concentration needed to halve the response being measured. Lower therefore signals inhibition by little substance. As a reminder, the EC50 is the concentration that produces a half-maximal response. A higher EC50 goes with a need for much substance. Turning to `O=C1NC[C@@]2(CN3CCC2CC3)O1`, the Effect result in [1] and in experiment [11] was “inactive” throughout. For the same compound, the Activation entry in [2] is “inactive”. Moreover, the concentration for half-maximal inhibition (IC50) was over 1000 µM in [3] and over 2000 µM in experiment [10]. For the same compound, in [4], the midpoint of the response, the EC50, lay at 0.38 µM. Moreover, the Activation was determined as 3% with Oocyte [5]; 2% in experiment [6]; 1% in experiment [7]; 2% in experiment [8]; 1% in experiment [9].

As for `Cc1nccn1CC1CCc2c(c3ccccc3n2C)C1=O` (stereo not drawn) [ONDANSETRON], the values for the IC50 in experiment [12], in [3] and in experiment [10] were 25 µM, 27 µM and 66 µM, respectively. The Effect result in experiment [13] (filed as antagonist) and in experiment [16] (filed as antagonist) was “Antagonist” in each case. The Effect result (in experiment [14]; in the experiment with Oocyte [15]) was “inactive” each time.

On to `CN1[C@@H]2CC[C@H]1C[C@@H](OC(=O)c1c[nH]c3ccccc13)C2` [TROPISETRON], for which the Effect entry (in experiment [13]; in experiment [14]; in the experiment with Oocyte [15]; in experiment [16]) was “inactive” throughout. In experiment [10], this compound gave an IC50 of 170 µM.
